Test: xn = mol fraction of the nth substance listed

ClC(Cl)C(Cl)Cl + CCCCCCCCC
303.15 K, 101 kPa
Conditions | viscosity [mPa·s]
x1 = 0.1552 | 0.651
x1 = 0.2636 | 0.704
x1 = 0.3332 | 0.742
x1 = 0.3926 | 0.77
x1 = 0.5196 | 0.836
x1 = 0.5976 | 0.879
x1 = 0.6903 | 0.943
x1 = 0.7468 | 0.991
x1 = 0.8858 | 1.163
x1 = 0.9204 | 1.235

COCCOCCOC + COC(=O)c1ccccc1
viscosity [mPa·s], 101.33 kPa
Conditions | x1 = 0.1017 | x1 = 0.1985 | x1 = 0.3026 | x1 = 0.3989 | x1 = 0.4978 | x1 = 0.599 | x1 = 0.6958 | x1 = 0.7991 | x1 = 0.8979
298.15 K | 1.707 | 1.622 | 1.532 | 1.448 | 1.367 | 1.286 | 1.209 | 1.129 | 1.055
303.15 K | 1.542 | 1.467 | 1.389 | 1.317 | 1.245 | 1.173 | 1.105 | 1.036 | 0.971
308.15 K | 1.401 | 1.334 | 1.264 | 1.2 | 1.137 | 1.073 | 1.014 | 0.953 | 0.894
313.15 K | 1.279 | 1.218 | 1.155 | 1.1 | 1.044 | 0.987 | 0.934 | 0.879 | 0.828
318.15 K | 1.169 | 1.116 | 1.061 | 1.012 | 0.962 | 0.911 | 0.862 | 0.814 | 0.768

ClC(Cl)C(Cl)Cl + CCCCCCC
303.15 K, 101 kPa
Conditions | viscosity [mPa·s]
x1 = 0.1397 | 0.398
x1 = 0.2476 | 0.472
x1 = 0.3744 | 0.564
x1 = 0.4722 | 0.643
x1 = 0.5731 | 0.727
x1 = 0.6565 | 0.8
x1 = 0.7428 | 0.896
x1 = 0.8309 | 1.023
x1 = 0.9008 | 1.165
x1 = 0.9406 | 1.267

— the CheMixHub viscosity set
